Experiments:
Assay in all cases: Kinase panel biochemical assay
Settings in all cases: 1 μM single concentration, read-out: % residual enzyme activity
[1] = biological target: ABL1 (Homo sapiens, UniProt P00519)
Experimental: (§1) In order to measure the protein kinase inhibitory activity (% inhibition) of the compounds of the present invention, biochemical assays were performed on the full kinase panel listed in the following Table 1.
(§2) As an test compound, 1-(3-(7-((6-(4-ethylpiperazine-1-carbonyl)pyridin-3-yl)amino)-1-methyl-2-oxo-1,4-dihydropyrimido[4,5-d]pyrimidin-3(2H)-yl)-4-methylphenyl)-3-(2-methoxyphenyl)urea (Compound No. 14) was used. The kinase inhibitory efficacy was measured upon treatment with a 1 μM single concentration of the test compound to calculate % residual enzyme activity value.
(§3) ABL1, FGFR2, TAOK2/TAO1, EPHA5, EPHB2, EPHB3, RET, LYN B, EPHA2, FRK/PTK5, EPHA8, LCK, EPHB4, FYN, KHS/MAP4K5, DDR1, EPHA3, P38a/MAPK14, EPHA4, FMS, EPHB1, HCK, FGFR1, ABL2/ARG, EPHA6, c-Src, ACK1, FLT4NEGFR3, ERBB4/HER4, DDR2, KDRNEGFR2, LYN, ZAK/MLTK, YES/YES1, BLK, FGR, MLCK2/MYLK2, TAOK1, BMX/ETK, BTK, EPHA1, JAK1, P38b/MAPK11, TIE2/TEK, FLT1NEGFR1, TXK, SRMS, RAF1, SIK1, MLK3/MAP3K11, PEAK1, TRKA, EPHA7, GLK/MAP4K3, MLK2/MAP3K10, TEC, CSK, TRKC, FES/FPS, SIK2, FGFR3, BRK, YSK4/MAP3K19, ARAF, PDGFRb, TNK1, GCK/MAP4K2, PDGFRa, TNIK, TAK1, ERBB2/HER2, LIMK1, HIPK4, FER, EGFR, JAK2, HPK1/MAP4K1, TRKB, RIPK3, LOK/STK10, LIMK2, MLK1/MAP3K9, BRAF, MEKK3, MEK5, STK32B/YANK2, FGFR4, MEKK2, SLK/STK2, FLT3, PKAcg, TAOK3/JIK, TYRO3/SKY, SIK3, IR, LRRK2, PYK2, NEK11, p70S6K/RPS6KB1, LATS2.

[2] = biological target: ACK1 (Homo sapiens, UniProt Q07912)
Experimental: as §1, §2, §3

[3] = biological target: ARAF (Homo sapiens, UniProt P10398)
Experimental: as §1, §2, §3

[4] = biological target: BRK (Homo sapiens, UniProt Q13882)
Experimental: as §1, §2, §3

[5] = biological target: DDR2 (Homo sapiens, UniProt Q16832)
Experimental: as §1, §2, §3

[6] = biological target: EPHA4 (Homo sapiens, UniProt P54764)
Experimental: as §1, §2, §3

[7] = biological target: EPHA7 (Homo sapiens, UniProt Q15375)
Experimental: as §1, §2, §3

[8] = biological target: EPHB2 (Homo sapiens, UniProt P29323)
Experimental: as §1, §2, §3

[9] = biological target: FES/FPS (Homo sapiens, UniProt P07332)
Experimental: as §1, §2, §3

[10] = biological target: FGFR2 (Homo sapiens, UniProt P21802)
Experimental: as §1, §2, §3

[11] = biological target: FGFR3 (Homo sapiens, UniProt P22607)
Experimental: as §1, §2, §3

[12] = biological target: FLT1NEGFR1 (Homo sapiens, UniProt P17948)
Experimental: as §1, §2, §3

[13] = biological target: FLT4NEGFR3 (Homo sapiens, UniProt P35916)
Experimental: as §1, §2, §3

[14] = biological target: FMS (Homo sapiens, UniProt P07333)
Experimental: as §1, §2, §3

[15] = biological target: FYN (Homo sapiens, UniProt P06241)
Experimental: as §1, §2, §3

[16] = biological target: HCK (Homo sapiens, UniProt P08631)
Experimental: as §1, §2, §3

[17] = biological target: KHS/MAP4K5 (Homo sapiens, UniProt Q9Y4K4)
Experimental: as §1, §2, §3

[18] = biological target: LATS2 (Homo sapiens, UniProt Q9NRM7)
Experimental: as §1, §2, §3

[19] = biological target: MEK5 (Homo sapiens, UniProt Q13163)
Experimental: as §1, §2, §3

[20] = biological target: MLK2/MAP3K10 (Homo sapiens, UniProt Q02779)
Experimental: as §1, §2, §3

[21] = biological target: MLK3/MAP3K11 (Homo sapiens, UniProt Q16584)
Experimental: as §1, §2, §3

[22] = biological target: P38a/MAPK14 (Homo sapiens, UniProt Q16539)
Experimental: as §1, §2, §3

[23] = biological target: P38b/MAPK11 (Homo sapiens, UniProt Q15759)
Experimental: as §1, §2, §3

[24] = biological target: PDGFRa (Homo sapiens, UniProt P16234)
Experimental: as §1, §2, §3

[25] = biological target: PDGFRb (Homo sapiens, UniProt P09619)
Experimental: as §1, §2, §3

[26] = biological target: SIK2 (Homo sapiens, UniProt Q9H0K1)
Experimental: as §1, §2, §3

[27] = biological target: TAOK1 (Homo sapiens, UniProt Q7L7X3)
Experimental: as §1, §2, §3

[28] = biological target: TEC (Homo sapiens, UniProt P42680)
Experimental: as §1, §2, §3

[29] = biological target: TRKB (Homo sapiens, UniProt Q16620)
Experimental: as §1, §2, §3

[30] = biological target: TYRO3/SKY (Homo sapiens, UniProt Q06418)
Experimental: as §1, §2, §3

[31] = biological target: c-Src (Homo sapiens, UniProt P12931)
Experimental: as §1, §2, §3

Measured: remaining activity at 1 µM

Sequence of DDR2 (Q16832 22-855): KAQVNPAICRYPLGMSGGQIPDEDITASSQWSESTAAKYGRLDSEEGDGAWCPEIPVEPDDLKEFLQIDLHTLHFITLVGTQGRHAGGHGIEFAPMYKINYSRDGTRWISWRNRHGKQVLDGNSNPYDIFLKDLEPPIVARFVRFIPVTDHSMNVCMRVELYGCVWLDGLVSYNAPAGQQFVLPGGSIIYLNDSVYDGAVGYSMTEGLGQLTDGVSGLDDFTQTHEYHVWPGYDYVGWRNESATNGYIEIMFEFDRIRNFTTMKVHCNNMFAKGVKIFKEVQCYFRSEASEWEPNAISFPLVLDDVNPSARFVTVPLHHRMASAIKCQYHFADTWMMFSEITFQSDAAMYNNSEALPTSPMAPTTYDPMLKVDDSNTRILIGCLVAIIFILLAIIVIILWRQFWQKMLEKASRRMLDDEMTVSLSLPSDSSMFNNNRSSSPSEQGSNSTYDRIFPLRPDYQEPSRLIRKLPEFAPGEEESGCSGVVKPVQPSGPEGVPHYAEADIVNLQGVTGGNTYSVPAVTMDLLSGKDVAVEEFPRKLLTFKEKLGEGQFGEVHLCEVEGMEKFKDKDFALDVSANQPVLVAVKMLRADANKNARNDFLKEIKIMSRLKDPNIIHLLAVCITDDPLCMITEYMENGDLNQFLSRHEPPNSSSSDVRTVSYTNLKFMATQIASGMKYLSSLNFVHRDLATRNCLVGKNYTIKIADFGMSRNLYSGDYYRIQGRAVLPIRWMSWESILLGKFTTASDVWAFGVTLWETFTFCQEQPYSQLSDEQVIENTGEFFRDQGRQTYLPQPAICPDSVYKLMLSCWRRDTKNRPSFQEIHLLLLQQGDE
Sequence of HCK (P08631 whole entry): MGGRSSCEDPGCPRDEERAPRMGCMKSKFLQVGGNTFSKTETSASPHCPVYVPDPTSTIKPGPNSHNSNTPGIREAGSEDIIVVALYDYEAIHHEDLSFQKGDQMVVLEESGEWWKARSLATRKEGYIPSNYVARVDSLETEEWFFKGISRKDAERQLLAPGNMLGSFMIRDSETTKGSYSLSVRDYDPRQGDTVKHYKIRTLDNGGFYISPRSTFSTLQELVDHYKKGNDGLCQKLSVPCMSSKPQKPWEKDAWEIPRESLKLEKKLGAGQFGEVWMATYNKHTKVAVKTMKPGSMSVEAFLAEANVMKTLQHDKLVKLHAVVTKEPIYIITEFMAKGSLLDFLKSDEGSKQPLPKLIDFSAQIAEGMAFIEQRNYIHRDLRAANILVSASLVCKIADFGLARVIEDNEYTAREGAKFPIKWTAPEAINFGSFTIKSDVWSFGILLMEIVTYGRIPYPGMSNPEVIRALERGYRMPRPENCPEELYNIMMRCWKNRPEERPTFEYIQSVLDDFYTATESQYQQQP
Sequence of BRK (Q13882 whole entry): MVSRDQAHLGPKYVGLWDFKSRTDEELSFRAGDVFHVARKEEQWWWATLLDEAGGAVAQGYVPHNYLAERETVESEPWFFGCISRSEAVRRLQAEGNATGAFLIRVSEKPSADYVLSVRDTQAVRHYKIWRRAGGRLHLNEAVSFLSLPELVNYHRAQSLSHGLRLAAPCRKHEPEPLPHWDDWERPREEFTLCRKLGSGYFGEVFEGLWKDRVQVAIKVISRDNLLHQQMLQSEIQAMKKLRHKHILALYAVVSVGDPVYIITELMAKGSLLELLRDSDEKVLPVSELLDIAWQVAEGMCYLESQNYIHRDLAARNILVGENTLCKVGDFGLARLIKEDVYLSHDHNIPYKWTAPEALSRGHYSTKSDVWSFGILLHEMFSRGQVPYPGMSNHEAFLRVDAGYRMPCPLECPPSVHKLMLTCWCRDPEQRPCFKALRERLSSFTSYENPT
Sequence of ACK1 (Q07912 whole entry): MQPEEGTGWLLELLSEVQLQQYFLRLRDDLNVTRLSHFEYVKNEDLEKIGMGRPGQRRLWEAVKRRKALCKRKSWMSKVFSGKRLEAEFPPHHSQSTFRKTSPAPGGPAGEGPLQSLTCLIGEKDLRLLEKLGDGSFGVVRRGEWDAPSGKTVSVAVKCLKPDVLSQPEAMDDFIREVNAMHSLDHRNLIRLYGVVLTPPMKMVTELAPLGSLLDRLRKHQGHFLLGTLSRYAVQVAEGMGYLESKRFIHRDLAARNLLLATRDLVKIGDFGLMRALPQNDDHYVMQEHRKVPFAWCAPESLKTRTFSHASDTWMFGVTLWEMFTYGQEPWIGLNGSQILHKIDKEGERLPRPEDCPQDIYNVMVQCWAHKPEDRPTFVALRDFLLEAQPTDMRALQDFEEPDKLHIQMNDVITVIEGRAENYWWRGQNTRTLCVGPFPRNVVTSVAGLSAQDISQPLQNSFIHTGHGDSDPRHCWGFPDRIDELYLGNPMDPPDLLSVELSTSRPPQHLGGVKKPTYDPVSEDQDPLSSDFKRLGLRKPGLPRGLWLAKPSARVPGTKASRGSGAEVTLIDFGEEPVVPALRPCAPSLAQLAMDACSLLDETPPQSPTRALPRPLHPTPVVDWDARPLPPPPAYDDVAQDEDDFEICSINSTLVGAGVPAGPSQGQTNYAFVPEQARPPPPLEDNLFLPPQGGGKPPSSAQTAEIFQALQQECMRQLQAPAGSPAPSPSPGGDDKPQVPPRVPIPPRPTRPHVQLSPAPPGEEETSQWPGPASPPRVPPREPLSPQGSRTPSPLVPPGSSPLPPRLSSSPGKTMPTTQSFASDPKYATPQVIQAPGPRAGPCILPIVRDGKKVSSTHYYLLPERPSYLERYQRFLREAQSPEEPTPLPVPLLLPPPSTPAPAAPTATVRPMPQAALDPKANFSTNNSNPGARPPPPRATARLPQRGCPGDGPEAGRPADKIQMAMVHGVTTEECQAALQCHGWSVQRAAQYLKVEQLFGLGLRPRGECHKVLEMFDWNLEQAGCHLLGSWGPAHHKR
Sequence of TYRO3/SKY (Q06418 41-890): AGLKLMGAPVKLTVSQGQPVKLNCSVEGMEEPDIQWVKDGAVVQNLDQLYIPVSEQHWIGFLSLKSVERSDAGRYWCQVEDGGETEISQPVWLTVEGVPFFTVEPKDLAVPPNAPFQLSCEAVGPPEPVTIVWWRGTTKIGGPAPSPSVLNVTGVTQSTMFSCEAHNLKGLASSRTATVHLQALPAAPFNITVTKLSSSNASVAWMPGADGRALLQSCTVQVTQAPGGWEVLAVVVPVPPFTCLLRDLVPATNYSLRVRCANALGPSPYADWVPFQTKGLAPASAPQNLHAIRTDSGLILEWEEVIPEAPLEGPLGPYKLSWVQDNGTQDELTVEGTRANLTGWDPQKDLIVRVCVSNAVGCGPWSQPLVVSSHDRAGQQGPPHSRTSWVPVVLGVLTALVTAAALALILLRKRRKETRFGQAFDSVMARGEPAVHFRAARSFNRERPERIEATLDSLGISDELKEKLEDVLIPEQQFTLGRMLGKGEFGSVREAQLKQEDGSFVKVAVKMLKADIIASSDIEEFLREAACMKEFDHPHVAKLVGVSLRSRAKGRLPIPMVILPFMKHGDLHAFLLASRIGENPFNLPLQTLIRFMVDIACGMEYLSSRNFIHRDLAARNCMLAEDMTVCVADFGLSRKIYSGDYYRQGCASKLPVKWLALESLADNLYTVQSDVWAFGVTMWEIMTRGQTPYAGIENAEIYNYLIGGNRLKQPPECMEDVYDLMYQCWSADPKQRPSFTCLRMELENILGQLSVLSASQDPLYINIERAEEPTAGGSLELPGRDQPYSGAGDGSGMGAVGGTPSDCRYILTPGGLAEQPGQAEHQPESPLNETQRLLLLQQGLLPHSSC
Sequence of KHS/MAP4K5 (Q9Y4K4 whole entry): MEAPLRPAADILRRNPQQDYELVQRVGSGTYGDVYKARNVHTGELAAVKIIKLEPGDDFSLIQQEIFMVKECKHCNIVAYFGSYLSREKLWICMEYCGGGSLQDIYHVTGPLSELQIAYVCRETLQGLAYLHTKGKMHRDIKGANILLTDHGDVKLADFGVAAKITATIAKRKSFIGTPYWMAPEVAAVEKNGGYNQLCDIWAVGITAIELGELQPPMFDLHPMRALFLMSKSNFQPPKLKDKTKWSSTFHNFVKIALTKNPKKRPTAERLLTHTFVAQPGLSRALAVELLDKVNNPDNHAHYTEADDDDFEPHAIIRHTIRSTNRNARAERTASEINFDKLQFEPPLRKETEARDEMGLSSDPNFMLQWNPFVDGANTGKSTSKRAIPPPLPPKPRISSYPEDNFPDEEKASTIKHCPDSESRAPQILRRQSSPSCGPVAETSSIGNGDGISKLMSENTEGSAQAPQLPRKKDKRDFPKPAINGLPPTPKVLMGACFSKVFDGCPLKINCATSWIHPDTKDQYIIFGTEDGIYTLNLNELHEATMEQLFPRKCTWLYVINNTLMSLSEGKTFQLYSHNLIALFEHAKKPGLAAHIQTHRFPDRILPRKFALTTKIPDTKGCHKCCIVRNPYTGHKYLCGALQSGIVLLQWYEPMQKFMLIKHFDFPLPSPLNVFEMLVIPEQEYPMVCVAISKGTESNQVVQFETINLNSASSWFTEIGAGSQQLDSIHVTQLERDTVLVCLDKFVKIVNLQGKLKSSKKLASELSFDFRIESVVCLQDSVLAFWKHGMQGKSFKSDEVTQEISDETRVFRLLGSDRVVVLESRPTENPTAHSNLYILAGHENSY
Sequence of P38a/MAPK14 (Q16539 whole entry): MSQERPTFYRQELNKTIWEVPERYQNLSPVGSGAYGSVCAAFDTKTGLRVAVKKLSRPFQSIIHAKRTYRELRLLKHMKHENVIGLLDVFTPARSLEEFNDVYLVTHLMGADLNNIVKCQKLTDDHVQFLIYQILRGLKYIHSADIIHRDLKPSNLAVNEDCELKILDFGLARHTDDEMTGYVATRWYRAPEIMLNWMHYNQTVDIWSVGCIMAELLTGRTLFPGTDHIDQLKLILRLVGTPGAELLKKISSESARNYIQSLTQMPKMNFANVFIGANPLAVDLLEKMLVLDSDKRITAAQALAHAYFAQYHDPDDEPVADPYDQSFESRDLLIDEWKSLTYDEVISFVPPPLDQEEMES

CCN1CCN(C(=O)c2ccc(Nc3ncc4c(n3)N(C)C(=O)N(c3cc(NC(=O)Nc5ccccc5OC)ccc3C)C4)cn2)CC1 [Compound No. 14, 1-(3-(7-((6-(4-ethylpiperazin-1-carbonyl)pyridin-3-yl)amino)-1-methyl-2-oxo-1,4-dihydropyrimido[4,5-d]pyrimidin-3(2H)-yl)-4-methylphenyl)-3-(2-methoxyphenyl)urea]
≤ 30%: all assays above

From patent publication US10059717B2, “Urea compounds containing 3,4-dihydropyrimido[4,5-D]pyrimidin-2(1H)-one skeleton as protein kinase inhibitors” (KOREA INSTITUTE OF SCIENCE AND TECHNOLOGY, priority 2016, dated 2018)
